Reference: patent US20170166870A1, “HUMAN HEPATIC 3D CO-CULTURE MODEL AND USES THEREOF” (Vrije Universiteit Brussel, priority 2014, published 2017)
“And” between values parts separate entries of the source, which are not always exact repeats. Identical values can stand only once. Like-named read-outs stand apart in the source and are kept apart here.

Legend:
3D HepaRG/HSC co-culture [1] = experiment: Single and repeated exposure, gene expression of HSC activation markers; format: cell-based, human; conditions: for HSC activation (up-regulation of activation markers, mRNA): serum-free medium
Procedure: Single and repeated exposure. For the single and repeated compound exposure cell spheroids (3D HepaRG/HSC, 3D HepaRG and 3D HSC) were exposed respectively on day 20 for 24 h or every second day from day 8 to day 21 in serum-free medium with no additional solvent. Cells were exposed to a range of 8 concentrations between 0.5 and 80 mM for APAP single-dose, 0.125 and 40 mM for APAP repeated-dose, 0.3 and 500 μM Allyl Alcohol (AA, Sigma-Aldrich), 1.9 and 1000 μM Methotrexate (MTX, Pfizer, NY, USA). For the recovery assay, on day 21, cells were washed using serum-free medium and kept for 3 extra days.
For the cell culture samples, total RNA from 4-6 pooled spheroids was extracted from cells using the RNeasy Micro Kit (Qiagen, Venlo, Limburg, Netherlands). In the mouse assays, sorted HSC from different mice were lysed separately. Total RNA from tissue cultured cells was extracted using ReliaPrep RNA Cell Miniprep System (Promega).
Reverse-transcription using the Revert Aid Kit (ThermoFisher Scientific, Waltham, Massachusetts, USA) allowed conversion of RNA to cDNA. The RT reaction was performed at 25° C. for ten minutes followed by 30 minutes at 50° C. For quantitative real-time polymerase chain reaction (qPCR), GoTaq QPCR Master Mix with BRYTE green (Promega) was used, subjected to qPCR in a 7500 real time PCR system and analysed using System SDS software v2.0.5 (Applied Biosystems, Waltham, Mass., USA), using GAPDH for normalisation. Reliability of GAPDH as house-keeping gene was determined using Normfinder (Anderson et al., 2004). Fold change differences between samples were determined using the comparative Ct (δδCt) method. The expression level of different targets, relative to GAPDH (δCt) and relative to the calibrator, was given by 2^−δδCt.

3D HepaRG = conditions: read-out: APAP EC50 values (±stdev), cited from earlier work
3D HSC mono-culture [2] = experiment: APAP toxicity on HSC; format: cell-based, human; conditions: APAP 0.5-80 mM, 24 h
Procedure: APAP toxicity assay was performed in 3D HepaRG/co-culture as well as in 3D HepaRG monoculture. For 24 h, starting at day 20, cells were exposed to a range of APAP concentrations between 0.5 and 80 mM, keeping cells with the solvent (0.1% DMSO) as a control. For some experiments the culture medium was supplemented with 2.5 mM valproic acid (VPA sodium salt, Sigma-Aldrich) or with cytokine mixture (Raicevic et al.,2012)-interleukin (IL)-1β 25 ng/mL (Peprotech, Rocky Hill, N.J., USA), interferon (IFN)-γ 10^3 U/mL, tumor necrosis factor (TNF)-a 50 ng/mL, and IFN-α 3·10^3 U/mL (all from Prospec, Inc., East Brunswick, N.J., USA). For the recovery assay, at the end of APAP incubation, cells were washed using HepaRG culture 0% DMSO medium and kept in the same medium for 3 more days. […]
We investigated the effect of APAP on the different cell types by measurement of the two major energy producing pathways assessing at the mitochondrial functional level. For that purpose, we measured the Oxygen Consumption Rate (OCR) and Glycolisis (through proton production—Extracellular Acidification rate, ECAR) using the XF Cell Mito Stress Test Kit (Seahorse Biosciences) 0, 12 and 24 hours of APAP incubation in the three 3D cultures. […]

3D HepaRG mono-culture = experiment: APAP toxicity assay, cell viability by ATP (Cell titer Glo); format: cell-based; conditions: Homo sapiens, 0% DMSO, read-out: APAP EC50 values (±stdev)
Procedure: APAP toxicity assay was performed in 3D HepaRG/co-culture as well as in 3D HepaRG monoculture. For 24 h, starting at day 20, cells were exposed to a range of APAP concentrations between 0.5 and 80 mM, keeping cells with the solvent (0.1% DMSO) as a control. For some experiments the culture medium was supplemented with 2.5 mM valproic acid (VPA sodium salt, Sigma-Aldrich) or with cytokine mixture (Raicevic et al.,2012)-interleukin (IL)-1β 25 ng/mL (Peprotech, Rocky Hill, N.J., USA), interferon (IFN)-γ 10^3 U/mL, tumor necrosis factor (TNF)-a 50 ng/mL, and IFN-α 3·10^3 U/mL (all from Prospec, Inc., East Brunswick, N.J., USA). For the recovery assay, at the end of APAP incubation, cells were washed using HepaRG culture 0% DMSO medium and kept in the same medium for 3 more days.
(§1) At the end of the incubation period, 5 spheroids per condition were pooled and lysed for RNA analyses, while the remaining spheroids per condition were lysed individually for viability analysis using the Cell titer Glo kit (Promega) for ATP measurements following the instructions of the manufacturer.

3D HSC mono-culture [3] = experiment: mRNA expression of HSC activation markers (qPCR) after APAP incubation; format: cell-based, human; conditions: 20 mM APAP, 24h, Assays 1-3
3D HepaRG/HSC co-culture [4] = experiment: APAP toxicity assay, cell viability by ATP (Cell titer Glo); format: cell-based, human; conditions: Homo sapiens, 3D HepaRG/HSC, current study, 0% DMSO, read-out: APAP EC50 values (±stdev)
Procedure: APAP toxicity assay was performed in 3D HepaRG/co-culture as well as in 3D HepaRG monoculture. […] For some experiments the culture medium was supplemented with 2.5 mM valproic acid (VPA sodium salt, Sigma-Aldrich) or with cytokine mixture (Raicevic et al.,2012)-interleukin (IL)-1β 25 ng/mL (Peprotech, Rocky Hill, N.J., USA), interferon (IFN)-γ 10^3 U/mL, tumor necrosis factor (TNF)-a 50 ng/mL, and IFN-α 3·10^3 U/mL (all from Prospec, Inc., East Brunswick, N.J., USA). For the recovery assay, at the end of APAP incubation, cells were washed using HepaRG culture 0% DMSO medium and kept in the same medium for 3 more days.
as §1

CC(=O)Nc1ccc(O)cc1 [APAP, Acetaminophen]
concentration of peak HSC activation (3D HepaRG/HSC co-culture [1]; repeated exposure): 5 to 10 mM
HSC activation (up-regulation of activation markers, mRNA) (3D HepaRG/HSC co-culture [1]; repeated exposure): toxicity and HSC activation both in single and repeated-exposure
concentration of peak HSC activation (3D HepaRG/HSC co-culture [1]; single exposure): 20 to 40 mM
recovery of HSC 3 days after compound washout (3D HepaRG/HSC co-culture [1]; single exposure): observed
HSC activation (up-regulation of activation markers, mRNA) (3D HepaRG/HSC co-culture [1]; single exposure 24 h): toxicity and HSC activation both in single and repeated-exposure
EC50 (3D HepaRG; Day 6/7, Gunness et al. 2013, 2% DMSO): 2.7 ± 7.14 mM
EC50 (3D HepaRG; Day 21/22, Gunness et al. 2013, 2% DMSO): 10.1 ± 9.9 mM
toxic effect on the HSC (3D HSC mono-culture [2]): only observed at the highest concentrations
EC50 (3D HepaRG mono-culture; 144 h, Day 6/7, current study): 11.6 mM
EC50 (3D HepaRG mono-culture; 504 h, Day 21/22, current study): 11.6 ± 2.15 mM
Loxl2 mRNA fold increase (3D HSC mono-culture [3]): 1.13 +/− 0.05 fold and 0.70 +/− 0.23 fold and 0.85 +/− 0.86 fold
EC50 (3D HepaRG/HSC co-culture [4]; 144 h, Day 6/7): 10 ± 1.09 mM
EC50 (3D HepaRG/HSC co-culture [4]; 504 h, Day 21/22): 8 ± 4.17 mM
